Laboratory results published in PubChem BioAssay (NCI).
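Grown in 96-well plates, cells were treated for 48 hours with each compound at five concentrations. Insufficient inhibition: endpoint recorded as highest concentration tested. GI50: concentration for 50% inhibition of growth. At the TGI there is no net growth.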

What was measured:
Test in all cases: NCI tumour cell line growth inhibition, 48 h; in the data active means GI50 below about 0.43 µM; inactive means the rest
OVCAR-8 ovarian = test system: OVCAR-8 ovarian
NCI-H460 lung = test system: NCI-H460 lung
CCRF-CEM leukemia = test system: CCRF-CEM leukemia
SNB-75 CNS = test system: SNB-75 CNS
HOP-92 NSCLC = test system: HOP-92 NSCLC
COLO 205 colon = test system: COLO 205 colon
PC-3 prostate = test system: PC-3 prostate
HOP-62 NSCLC = test system: HOP-62 NSCLC
K-562 leukemia = test system: K-562 leukemia
MDA-MB-231 breast = test system: MDA-MB-231 breast
DU-145 prostate = test system: DU-145 prostate
UACC-62 melanoma = test system: UACC-62 melanoma
HL-60(TB) leukemia = test system: HL-60(TB) leukemia
HCT-15 colon = test system: HCT-15 colon
HS 578T breast = test system: HS 578T breast
SF-295 CNS = test system: SF-295 CNS
SNB-19 CNS = test system: SNB-19 CNS
OVCAR-5 ovarian = test system: OVCAR-5 ovarian
NCI/ADR-RES ovarian = test system: NCI/ADR-RES ovarian
OVCAR-4 ovarian = test system: OVCAR-4 ovarian
EKVX NSCLC = test system: EKVX NSCLC
CAKI-1 renal = test system: CAKI-1 renal
U251 CNS = test system: U251 CNS
786-0 renal = test system: 786-0 renal
RPMI-8226 leukemia = test system: RPMI-8226 leukemia
OVCAR-3 ovarian = test system: OVCAR-3 ovarian
SK-MEL-5 melanoma = test system: SK-MEL-5 melanoma
SF-268 CNS = test system: SF-268 CNS
SK-MEL-28 melanoma = test system: SK-MEL-28 melanoma
KM12 colon = test system: KM12 colon
MCF7 breast = test system: MCF7 breast
A549 NSCLC = test system: A549 NSCLC
T-47D breast = test system: T-47D breast
MOLT-4 leukemia = test system: MOLT-4 leukemia
BT-549 breast = test system: BT-549 breast
SK-MEL-2 melanoma = test system: SK-MEL-2 melanoma
SK-OV-3 ovarian = test system: SK-OV-3 ovarian
HCT-116 colon = test system: HCT-116 colon
TK-10 renal = test system: TK-10 renal
ACHN renal = test system: ACHN renal
SW-620 colon = test system: SW-620 colon
MDA-MB-435 = test system: MDA-MB-435
UO-31 renal = test system: UO-31 renal

COc1cccc(CCNC(=O)CC(c2ccccc2)(c2ccccc2)c2ccccc2)c1
94.8 µM: TGI (ACHN renal)
50.9 µM: TGI (CAKI-1 renal)
55.6 µM: TGI (U251 CNS)
96.5 µM: TGI (A549 NSCLC)
47.7 µM: TGI (OVCAR-8 ovarian)
inactive: GI50 (OVCAR-8 ovarian) 4.98 µM | GI50 (NCI-H460 lung) 10.5 µM | GI50 (CCRF-CEM leukemia) 8.16 µM | GI50 (SNB-75 CNS) > 100 µM | GI50 (HOP-92 NSCLC) > 100 µM | GI50 (COLO 205 colon) 12.8 µM | GI50 (PC-3 prostate) 6.12 µM | GI50 (HOP-62 NSCLC) 59.4 µM | GI50 (K-562 leukemia) 6.03 µM | GI50 (MDA-MB-231 breast) > 100 µM | GI50 (DU-145 prostate) 26.8 µM | GI50 (UACC-62 melanoma) 613 nM | GI50 (HL-60(TB) leukemia) 17.5 µM | GI50 (HCT-15 colon) > 100 µM | GI50 (HS 578T breast) > 100 µM | GI50 (SF-295 CNS) 4.36 µM | GI50 (SNB-19 CNS) 90.1 µM | GI50 (OVCAR-5 ovarian) 11.7 µM | GI50 (NCI/ADR-RES ovarian) 5.26 µM | GI50 (OVCAR-4 ovarian) > 100 µM | GI50 (EKVX NSCLC) 22.7 µM | GI50 (CAKI-1 renal) 3.16 µM | GI50 (U251 CNS) 4.86 µM | GI50 (786-0 renal) 10.6 µM | GI50 (RPMI-8226 leukemia) 4.98 µM | GI50 (OVCAR-3 ovarian) 4.77 µM | GI50 (SK-MEL-5 melanoma) 4.84 µM | GI50 (SF-268 CNS) 15 µM | GI50 (SK-MEL-28 melanoma) > 100 µM | GI50 (KM12 colon) 4.75 µM | GI50 (MCF7 breast) 21.5 µM | GI50 (A549 NSCLC) 4.11 µM | GI50 (T-47D breast) > 100 µM | GI50 (MOLT-4 leukemia) 6.01 µM | GI50 (BT-549 breast) > 100 µM | GI50 (SK-MEL-2 melanoma) 4.41 µM | GI50 (SK-OV-3 ovarian) > 100 µM | GI50 (HCT-116 colon) 2580 nM | GI50 (TK-10 renal) 21.9 µM | GI50 (ACHN renal) 7.84 µM | GI50 (SW-620 colon) 85.3 µM | GI50 (MDA-MB-435) 6.5 µM | GI50 (UO-31 renal) 4.75 µM
82.2 µM: TGI (TK-10 renal)
26.7 µM: TGI (HCT-116 colon)
> 100 µM: TGI (NCI-H460 lung) | TGI (CCRF-CEM leukemia) | TGI (SNB-75 CNS) | TGI (HOP-92 NSCLC) | TGI (COLO 205 colon) | TGI (PC-3 prostate) | TGI (HOP-62 NSCLC) | TGI (K-562 leukemia) | TGI (MDA-MB-231 breast) | TGI (DU-145 prostate) | TGI (UACC-62 melanoma) | TGI (HL-60(TB) leukemia) | TGI (HCT-15 colon) | TGI (HS 578T breast) | TGI (SF-295 CNS) | TGI (SNB-19 CNS) | TGI (OVCAR-5 ovarian) | TGI (NCI/ADR-RES ovarian) | TGI (OVCAR-4 ovarian) | TGI (EKVX NSCLC) | TGI (786-0 renal) | TGI (RPMI-8226 leukemia) | TGI (OVCAR-3 ovarian) | TGI (SK-MEL-5 melanoma) | TGI (SF-268 CNS) | TGI (SK-MEL-28 melanoma) | TGI (KM12 colon) | TGI (MCF7 breast) | TGI (T-47D breast) | TGI (MOLT-4 leukemia) | TGI (BT-549 breast) | TGI (SK-MEL-2 melanoma) | TGI (SK-OV-3 ovarian) | TGI (SW-620 colon) | TGI (MDA-MB-435) | TGI (UO-31 renal)
